The structures appear in SMILES notation.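 Results reflect a 48-hour exposure of cells in 96-well plates to compound at five concentrations. Abbreviation: GI50, concentration required for 50% inhibition of growth. The concentration for full growth arrest is given as TGI.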

For 6 molecules, GI50 and TGI results are on record in PubChem BioAssay (NCI).

Test systems include A498 renal; A549 NSCLC; HCC-2998 colon; HOP-92 NSCLC; OVCAR-3 ovarian; OVCAR-4 ovarian; SW-620 colon; T-47D breast; U251 CNS; UO-31 renal.
Common to all, as to test: NCI anticancer screen, dose series, 48 h

On to `NC(=N\N=C/c1ccc(O)cc1)/C(N)=N\N=C/c1ccc(O)cc1`, for which the GI50 with A498 renal is more than 100 µM; with A549 NSCLC it was more than 25.5 µM; in the test on HCC-2998 colon, 8.56 µM; with HOP-92 NSCLC, 60.3 µM; in the test with OVCAR-3 ovarian, more than 100 µM; in the test with OVCAR-4 ovarian, more than 90.1 µM. Moreover, the GI50 was more than 23.6 µM with SW-620 colon, 13.6 µM in the test on T-47D breast, 19.5 µM in the test with U251 CNS and 1.21 µM in the test on UO-31 renal. Moreover, the TGI with A498 renal, with A549 NSCLC, in the test on HCC-2998 colon, in the test with HOP-92 NSCLC, in the test with OVCAR-3 ovarian and with OVCAR-4 ovarian was more than 100 µM each time. In addition, the TGI with SW-620 colon, in the test on T-47D breast, in the test on U251 CNS and with UO-31 renal was more than 100 µM each time.

`CCCCNNC(=O)c1ccc(Br)cc1`: the GI50 is 0.364 µM in the test on A498 renal; 5.34 µM in the test with A549 NSCLC; 4.35 µM in the test on HCC-2998 colon; 1.46 µM in the test with HOP-92 NSCLC; 5.26 µM in the test with OVCAR-3 ovarian; 4.79 µM in the test with OVCAR-4 ovarian. Further, the GI50 in the test on SW-620 colon was 2.17 µM; in the test on T-47D breast, 1.11 µM; in the test with U251 CNS, 3.78 µM; in the test on UO-31 renal, 2.36 µM. Further, the TGI with A498 renal was 3.41 µM; in the test on A549 NSCLC it was more than 50 µM; in the test with HCC-2998 colon it was 24 µM; in the test with HOP-92 NSCLC it was 11.4 µM; in the test on OVCAR-3 ovarian it was more than 50 µM; in the test on OVCAR-4 ovarian, more than 50 µM. The TGI in the test with SW-620 colon is more than 50 µM; in the test with T-47D breast, 7.49 µM; in the test on U251 CNS it was 28.5 µM; in the test on UO-31 renal, more than 35.1 µM.

Take `O=[N+]([O-])c1ccc(NN=C2CN3CCN(C2)c2ccccc23)c([N+](=O)[O-])c1`: the TGI in the test on A498 renal, with A549 NSCLC, with HCC-2998 colon, in the test on HOP-92 NSCLC, in the test with OVCAR-3 ovarian and in the test on OVCAR-4 ovarian was more than 100 µM in each case. For the same molecule, the TGI in the test with SW-620 colon, in the test on T-47D breast, in the test on U251 CNS and in the test on UO-31 renal was more than 100 µM in each case.

On to `[2H]C([2H])([2H])NC(=O)c1nnc(NC(=O)C2CC2)cc1Nc1cccc(-c2ncn(C)n2)c1OC`, for which the GI50 in the test on A498 renal is 4.12 µM; in the test on A549 NSCLC it was 50.1 µM; in the test on HCC-2998 colon it was 96.3 µM; in the test on HOP-92 NSCLC, 17.9 µM; with OVCAR-3 ovarian it was 41.3 µM; in the test with OVCAR-4 ovarian, 18.2 µM. Further, the GI50 was 41.6 µM in the test on SW-620 colon, 32.4 µM in the test on T-47D breast, 59.5 µM in the test on U251 CNS and 5.93 µM in the test on UO-31 renal. The TGI in the test with A498 renal, with A549 NSCLC, in the test on HCC-2998 colon, in the test with HOP-92 NSCLC, in the test on OVCAR-3 ovarian and in the test with OVCAR-4 ovarian was more than 100 µM in each case. Further, the TGI was more than 100 µM with SW-620 colon, more than 100 µM in the test with T-47D breast, more than 100 µM in the test on U251 CNS and 60.4 µM in the test with UO-31 renal.

On to `CN(C)c1ccc(Nc2c3ccccc3nc3ccccc23)cc1`, for which the GI50 was 0.353 µM in the test with A498 renal; 0.425 µM with A549 NSCLC; 1.41 µM in the test with HCC-2998 colon; 0.622 µM with HOP-92 NSCLC; 1.22 µM in the test on OVCAR-3 ovarian; 1.26 µM with OVCAR-4 ovarian. Besides, the GI50 in the test with SW-620 colon was 0.665 µM; in the test with T-47D breast it was 1.56 µM; with U251 CNS, 1.12 µM; in the test on UO-31 renal it was 0.359 µM. Further, the TGI in the test with A498 renal is 4.45 µM; in the test with A549 NSCLC it was 1.9 µM; with HCC-2998 colon it was 3.93 µM; in the test on HOP-92 NSCLC, 3.84 µM; in the test with OVCAR-3 ovarian it was 3.22 µM; in the test with OVCAR-4 ovarian it was 5.44 µM. Besides, the TGI was determined as 3.67 µM with SW-620 colon, 4.01 µM in the test with T-47D breast, 2.7 µM in the test on U251 CNS and 1.87 µM with UO-31 renal.

In the case of `c1ccc(-c2nn3c(c2-c2ccnc4cc(OCCN5CCOCC5)ccc24)CCC3)nc1`, the GI50 is more than 100 µM in the test with A498 renal; 43.8 µM with A549 NSCLC; more than 100 µM in the test on HCC-2998 colon; more than 68.9 µM with HOP-92 NSCLC; more than 69.9 µM in the test on OVCAR-3 ovarian; more than 100 µM in the test on OVCAR-4 ovarian. Further, the GI50 in the test with SW-620 colon is 73.2 µM; with T-47D breast, more than 100 µM; with U251 CNS, 97.3 µM; in the test with UO-31 renal it was 10.8 µM. The TGI in the test with A498 renal, in the test on A549 NSCLC, in the test with HCC-2998 colon, in the test with HOP-92 NSCLC, with OVCAR-3 ovarian and in the test with OVCAR-4 ovarian was more than 100 µM each time. Moreover, the TGI in the test on SW-620 colon, in the test on T-47D breast, in the test on U251 CNS and in the test with UO-31 renal was more than 100 µM each time.
